Experimental data: patent US10329309B2, “3-(3H-imidazo[4,5-B]pyridin-2-yl)-1H-pyrazolo[4,3-B]pyridines and therapeutic uses thereof” (Samumed, LLC, priority 2015, dated 2019)

Legend:
Format in all cases: cell-based
SW480 colon cancer cells = test: Cell viability assay (CellTiter-Blue), four days; details: Homo sapiens, 96 h; for EC50: CellTiter-Blue cell viability; for inhibition at 10 µM: read-out: percent inhibition at 10 μM (given for EC50 of >10 μM)
Summary of the method: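 4-day exposure, 37 °C/5% CO2; ~2×10^3 SW480 cells/well; 8-pt 1:3 curve, 10–0.0045 μM, duplicates vs DMSO controls. Resazurin→resorufin fluorescence readout, ~3 h. EC50 by nonlinear fit; if >10 μM, % inhibition at 10 μM reported.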

IL-6 (THP-1 cells) = test: Inhibition of IL-6 in LPS-stimulated THP-1 monocytes (HTRF); details: Homo sapiens; for EC50: LPS 500 ng/mL, IL-6 by HTRF; for inhibition at 10 µM: LPS stimulated, IL-6, at 10 μM, read-out: percent inhibition at 10 μM (given for EC50 of >10 μM)
Summary of the method: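 IL-6 release was read as the HTRF 665/620 nm ratio after 22 h of 500 ng/mL LPS at 37 °C. Before stimulation, THP-1 cells kept 24 h in 1% FBS were exposed 2 h to a 10-point 1:3 compound series starting at 10 μM, in 0.1% DMSO. Four-parameter EC50s came from DMSO-normalized duplicates, with % inhibition at 10 μM reported beyond 10 μM.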

[1] = tested on: Wnt activity (Sp5-Luc reporter, SW480 colon carcinoma cells); test: Screening assay for Wnt activity: Sp5-Luc reporter gene assay in SW480 cells; details: Homo sapiens; for inhibition at 10 µM: 10 μM compound, read-out: percent inhibition at 10 μM (given for EC50 of >10 μM); for EC50: overnight incubation, 10-point dose-response from 10 μM
Summary of the method: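 Luminescence (BrightGlo) read after overnight 37 °C exposure of Sp5-Luc SW480 reporter cells, 4,000/well in 1% FBS, to compound dosed 1:3 over 10 points from 10 μM with 0.1% DMSO. Values normalized to DMSO-only cells, fitted with variable-slope four-parameter model; where EC50 exceeds 10 μM, % inhibition at 10 μM reported.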

EC50 (SW480 colon cancer cells)	EC50 (IL-6 (THP-1 cells))	EC50 [1]	Structure (SMILES)	inhibition at 10 µM (SW480 colon cancer cells)	inhibition at 10 µM (IL-6 (THP-1 cells))	inhibition at 10 µM [1]
> 10 µM	> 10 µM	> 10 µM	CCNCc1cncc(-c2ccc3[nH]nc(-c4nc5c(-c6cc(F)cc(NCCN(C)C)c6)ccnc5[nH]4)c3n2)c1 [Compound 454, N^1-(3-(2-(5-(5-((ethylamino)methyl)pyridin-3-yl)-1H-pyrazolo[4,3-b]pyridin-3-yl)-3H-imidazo[4,5-b]pyridin-7-yl)-5-fluorophenyl)-N^2,N^2-dimethylethane-1,2-diamine]	42.2%	36.4%	43.4%
> 10 µM	> 10 µM	> 10 µM	CCC(=O)Nc1cncc(-c2ccc3[nH]nc(-c4nc5c(-c6cccc(F)c6)ccnc5[nH]4)c3n2)c1 [Compound 1, N-(5-(3-(7-(3-fluorophenyl)-3H-imidazo[4,5-b]pyridin-2-yl)-1H-pyrazolo [4,3-b]pyridin-5-yl)pyridin-3-yl)propionamide]	19.9%	3.5%	51.6%
5.85 µM	> 10 µM	4.06 µM	CN1CCN(c2ccnc3[nH]c(-c4n[nH]c5ccc(-c6cncc(OC7CCCCC7)c6)nc45)nc23)CC1 [Compound 639, 5-(5-(Cyclohexyloxy)pyridin-3-yl)-3-(7-(4-methylpiperazin-1-yl)-3H-imidazo[4,5-b]pyridin-2-yl)-1H-pyrazolo[4,3-b]pyridine]	–	33.5%	–
> 10 µM	> 10 µM	> 10 µM	Cn1cc(-c2ccc3[nH]nc(-c4nc5c(-c6cccc(F)c6)ccnc5[nH]4)c3n2)cn1 [Compound 508, 3-(7-(3-fluorophenyl)-3H-imidazo[4,5-b]pyridin-2-yl)-5-(1-methyl-1H-pyrazol-4-yl)-1H-pyrazolo[4,3-b]pyridine]	0%	15.5%	41%
> 10 µM	> 1 µM	> 10 µM	O=C(Nc1cncc(-c2ccc3[nH]nc(-c4nc5c(-c6ccncc6)ccnc5[nH]4)c3n2)c1)C1CCCCC1 [Compound 135, N-(5-(3-(7-(pyridin-4-yl)-3H-imidazo[4,5-b]pyridin-2-yl)-1H-pyrazolo[4,3-b]pyridin-5-yl)pyridin-3-yl)cyclohexanecarboxamide]	3.8%	22.1%	10.4%

Second part, the compound before the results:

Structure (SMILES)	EC50 (SW480 colon cancer cells)	EC50 (IL-6 (THP-1 cells))	EC50 [1]	inhibition at 10 µM (SW480 colon cancer cells)	inhibition at 10 µM (IL-6 (THP-1 cells))	inhibition at 10 µM [1]
CS(=O)(=O)NCc1cc(F)cc(-c2ccnc3[nH]c(-c4n[nH]c5ccc(-c6cncnc6)nc45)nc23)c1 [Compound 503, N-(3-Fluoro-5-(2-(5-(pyrimidin-5-yl)-1H-pyrazolo[4,3-b]pyridin-3-yl)-3H-imidazo[4,5-b]pyridin-7-yl)benzyl)methanesulfonamide]	> 10 µM	> 10 µM	> 10 µM	0.9%	29.6%	14.1%
Cc1ccncc1-c1ccc2[nH]nc(-c3nc4c(-c5ccncc5)ccnc4[nH]3)c2n1 [Compound 117, 5-(4-methylpyridin-3-yl)-3-(7-(pyridin-4-yl)-3H-imidazo[4,5-b]pyridin-2-yl)-1H-pyrazolo[4,3-b]pyridine]	> 10 µM	> 10 µM	> 10 µM	1.7%	18.6%	4.8%
COc1cccc(-c2ccnc3[nH]c(-c4n[nH]c5ccc(-c6cncc(O)c6)nc45)nc23)c1 [Compound 1030, 5-(3-(7-(3-Methoxyphenyl)-3H-imidazo[4,5-b]pyridin-2-yl)-1H-pyrazolo [4,3-b]pyridin-5-yl)pyridin-3-ol]	> 10 µM	> 10 µM	> 10 µM	3%	40.9%	33.5%
